Data on 13 compounds can be found in PMC12136037, “Type II kinase inhibitors that target Parkinson’s disease–associated LRRK2” (Science Advances, 2025).

What all share (assay): DSF 100 kinase selectivity screen;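 further: compound tested at 20 µM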
Common to all, as to type: binding

Assay [1] addresses T1, ~100 representative kinases (Homo sapiens, UniProt O43293).
T1 construct: Recombinant protein kinase domains with a concentration of 2 μM
Conditions: Protein DAPK3; average of three replicates. In short, it runs like this: (§1)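 Each kinase domain, at 2 μM, is mixed with 20 μM test compound and SYPRO Orange in Hepes (20 mM, pH 7.5) with 500 mM NaCl. Temperature is then raised at 3°C/min and fluorescence-monitored unfolding yields the melting temperature change, ΔTm in degrees Celsius.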

In assay [2] the target is T2, ~100 representative kinases (Homo sapiens, UniProt P15735).
T2 construct: Recombinant protein kinase domains with a concentration of 2 μM
T2 sequence (P15735 1-406): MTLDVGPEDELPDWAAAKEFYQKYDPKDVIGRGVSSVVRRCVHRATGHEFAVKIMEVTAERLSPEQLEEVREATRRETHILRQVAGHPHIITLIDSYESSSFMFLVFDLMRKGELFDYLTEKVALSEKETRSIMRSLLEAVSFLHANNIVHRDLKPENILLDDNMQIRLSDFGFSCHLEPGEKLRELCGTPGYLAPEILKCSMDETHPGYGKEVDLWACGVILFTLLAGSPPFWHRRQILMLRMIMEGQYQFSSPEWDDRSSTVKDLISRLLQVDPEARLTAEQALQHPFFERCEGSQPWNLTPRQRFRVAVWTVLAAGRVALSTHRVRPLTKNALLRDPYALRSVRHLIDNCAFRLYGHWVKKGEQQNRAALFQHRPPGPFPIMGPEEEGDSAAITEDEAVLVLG
To be noted: protein PHKG2; average of three replicates. In short, it runs like this:
as §1

Assay [3] deals with T3, ~100 representative kinases (Homo sapiens, UniProt P49759).
T3 construct: Recombinant protein kinase domains with a concentration of 2 μM
T3 sequence (P49759 whole entry, the tested form may be a part): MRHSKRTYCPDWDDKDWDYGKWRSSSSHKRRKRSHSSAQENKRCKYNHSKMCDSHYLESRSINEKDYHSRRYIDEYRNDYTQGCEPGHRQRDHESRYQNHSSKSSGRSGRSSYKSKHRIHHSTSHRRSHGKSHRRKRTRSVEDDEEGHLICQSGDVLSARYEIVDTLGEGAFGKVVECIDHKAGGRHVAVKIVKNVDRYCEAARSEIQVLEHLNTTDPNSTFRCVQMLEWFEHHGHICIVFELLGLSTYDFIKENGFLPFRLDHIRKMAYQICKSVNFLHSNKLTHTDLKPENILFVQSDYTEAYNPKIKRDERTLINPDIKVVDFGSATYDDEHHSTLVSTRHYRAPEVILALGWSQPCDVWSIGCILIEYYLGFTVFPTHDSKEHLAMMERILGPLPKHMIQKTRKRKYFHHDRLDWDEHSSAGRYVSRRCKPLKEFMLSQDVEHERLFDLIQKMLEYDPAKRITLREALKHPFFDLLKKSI
To be noted: Protein CLK1; average of three replicates. A digest of the protocol: as §1

Assay [4] has as its target T4, ~100 representative kinases (Homo sapiens, UniProt P53355).
T4 construct: Recombinant protein kinase domains with a concentration of 2 μM
Conditions: Protein DAPK1; average of three replicates. In short, it runs like this: as §1

For assay [5], the target named is T5, ~100 representative kinases (Homo sapiens, UniProt Q13873).
T5 construct: Recombinant protein kinase domains with a concentration of 2 μM
T5 sequence (Q13873 27-1038): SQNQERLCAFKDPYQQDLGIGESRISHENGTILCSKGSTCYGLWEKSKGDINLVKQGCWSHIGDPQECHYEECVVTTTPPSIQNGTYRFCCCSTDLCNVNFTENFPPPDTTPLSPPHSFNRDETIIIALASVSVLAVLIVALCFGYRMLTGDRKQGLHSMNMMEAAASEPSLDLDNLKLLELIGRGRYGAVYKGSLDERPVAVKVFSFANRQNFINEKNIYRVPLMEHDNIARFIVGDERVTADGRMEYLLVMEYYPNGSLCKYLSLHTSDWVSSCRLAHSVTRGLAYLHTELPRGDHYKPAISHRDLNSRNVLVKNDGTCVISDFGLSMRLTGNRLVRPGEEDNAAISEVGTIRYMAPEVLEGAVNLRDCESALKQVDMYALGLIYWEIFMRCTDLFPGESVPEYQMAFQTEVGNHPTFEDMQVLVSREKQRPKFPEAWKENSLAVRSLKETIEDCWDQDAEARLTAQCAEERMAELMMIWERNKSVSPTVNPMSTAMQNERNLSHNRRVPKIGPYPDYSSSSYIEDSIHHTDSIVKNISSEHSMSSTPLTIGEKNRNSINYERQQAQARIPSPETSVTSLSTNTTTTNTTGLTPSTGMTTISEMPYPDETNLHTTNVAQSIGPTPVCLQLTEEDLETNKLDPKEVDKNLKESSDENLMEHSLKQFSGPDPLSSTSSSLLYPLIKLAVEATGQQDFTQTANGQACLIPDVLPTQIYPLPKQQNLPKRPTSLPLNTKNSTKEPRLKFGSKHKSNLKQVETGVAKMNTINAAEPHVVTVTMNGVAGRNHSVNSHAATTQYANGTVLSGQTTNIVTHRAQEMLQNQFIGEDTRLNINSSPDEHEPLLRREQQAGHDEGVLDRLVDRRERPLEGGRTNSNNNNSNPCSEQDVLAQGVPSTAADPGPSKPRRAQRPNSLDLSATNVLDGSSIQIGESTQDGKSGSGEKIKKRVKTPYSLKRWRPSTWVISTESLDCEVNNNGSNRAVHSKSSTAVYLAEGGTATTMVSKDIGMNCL
Conditions: Protein BMPR2; average of three replicates. In short, it runs like this:
as §1

The target of assay [6] is T6, ~100 representative kinases (Homo sapiens, UniProt Q2M2I8).
T6 construct: Recombinant protein kinase domains with a concentration of 2 μM
T6 sequence (Q2M2I8 whole entry, the tested form may be a part): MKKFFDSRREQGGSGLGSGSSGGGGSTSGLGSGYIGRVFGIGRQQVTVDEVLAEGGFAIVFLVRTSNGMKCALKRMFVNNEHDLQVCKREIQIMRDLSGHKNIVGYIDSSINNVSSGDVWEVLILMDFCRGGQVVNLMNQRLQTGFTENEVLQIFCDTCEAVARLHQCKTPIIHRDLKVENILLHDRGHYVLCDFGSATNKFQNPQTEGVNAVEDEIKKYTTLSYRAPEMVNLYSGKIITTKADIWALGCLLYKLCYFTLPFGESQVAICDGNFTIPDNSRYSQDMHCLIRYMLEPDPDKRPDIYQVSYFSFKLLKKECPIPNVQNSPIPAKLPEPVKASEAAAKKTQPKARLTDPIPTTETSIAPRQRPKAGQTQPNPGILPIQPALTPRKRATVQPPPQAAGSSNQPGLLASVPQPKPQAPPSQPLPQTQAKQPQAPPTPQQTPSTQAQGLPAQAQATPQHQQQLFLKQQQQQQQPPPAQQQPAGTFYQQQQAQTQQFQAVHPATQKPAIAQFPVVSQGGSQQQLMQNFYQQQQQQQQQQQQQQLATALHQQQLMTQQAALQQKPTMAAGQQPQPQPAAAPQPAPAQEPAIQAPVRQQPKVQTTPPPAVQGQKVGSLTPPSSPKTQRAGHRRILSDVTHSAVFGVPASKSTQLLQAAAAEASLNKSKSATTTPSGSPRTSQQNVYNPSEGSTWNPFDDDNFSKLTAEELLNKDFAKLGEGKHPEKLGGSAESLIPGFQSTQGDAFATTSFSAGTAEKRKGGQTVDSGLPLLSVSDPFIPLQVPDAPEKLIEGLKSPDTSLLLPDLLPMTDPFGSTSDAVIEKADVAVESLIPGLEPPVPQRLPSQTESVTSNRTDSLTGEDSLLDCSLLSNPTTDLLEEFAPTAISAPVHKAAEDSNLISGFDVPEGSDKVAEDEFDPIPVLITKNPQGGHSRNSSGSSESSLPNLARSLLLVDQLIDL
Conditions: Protein AAK1; average of three replicates. In short, it runs like this: as §1

Assay [7] concerns the target T7, ~100 representative kinases (Homo sapiens, UniProt Q96RR4).
T7 construct: Recombinant protein kinase domains with a concentration of 2 μM
To be noted: Protein CAMKK2; average of three replicates. In short, it runs like this:
as §1

Assay [8] addresses T8, ~100 representative kinases (Homo sapiens, UniProt Q9UKI8).
T8 construct: Recombinant protein kinase domains with a concentration of 2 μM
T8 sequence (Q9UKI8 1-766): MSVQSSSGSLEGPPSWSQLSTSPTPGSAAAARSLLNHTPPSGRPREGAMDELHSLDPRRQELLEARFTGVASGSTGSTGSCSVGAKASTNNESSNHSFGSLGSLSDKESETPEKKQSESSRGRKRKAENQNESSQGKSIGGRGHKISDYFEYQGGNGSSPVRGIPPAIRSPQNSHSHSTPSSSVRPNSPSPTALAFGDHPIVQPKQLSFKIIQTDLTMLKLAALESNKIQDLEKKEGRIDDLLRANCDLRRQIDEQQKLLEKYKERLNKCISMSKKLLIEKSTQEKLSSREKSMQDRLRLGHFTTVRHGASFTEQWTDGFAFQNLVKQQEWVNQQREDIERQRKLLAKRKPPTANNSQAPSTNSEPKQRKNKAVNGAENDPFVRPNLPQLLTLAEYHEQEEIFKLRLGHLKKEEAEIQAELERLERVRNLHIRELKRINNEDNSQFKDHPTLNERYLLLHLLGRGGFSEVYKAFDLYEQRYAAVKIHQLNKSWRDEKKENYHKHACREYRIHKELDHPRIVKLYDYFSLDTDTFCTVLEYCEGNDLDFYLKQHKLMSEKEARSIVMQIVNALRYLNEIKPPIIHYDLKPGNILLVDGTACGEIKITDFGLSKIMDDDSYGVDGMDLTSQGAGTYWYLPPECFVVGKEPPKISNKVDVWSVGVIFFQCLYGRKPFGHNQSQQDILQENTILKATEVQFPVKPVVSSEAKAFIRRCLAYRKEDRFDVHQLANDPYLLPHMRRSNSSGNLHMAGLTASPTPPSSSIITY
To be noted: Protein TLK1; DSF; average of three replicates. In short, it runs like this: as §1

Molecules are shown by their SMILES.

T4 sequence (P53355 whole entry, the tested form may be a part): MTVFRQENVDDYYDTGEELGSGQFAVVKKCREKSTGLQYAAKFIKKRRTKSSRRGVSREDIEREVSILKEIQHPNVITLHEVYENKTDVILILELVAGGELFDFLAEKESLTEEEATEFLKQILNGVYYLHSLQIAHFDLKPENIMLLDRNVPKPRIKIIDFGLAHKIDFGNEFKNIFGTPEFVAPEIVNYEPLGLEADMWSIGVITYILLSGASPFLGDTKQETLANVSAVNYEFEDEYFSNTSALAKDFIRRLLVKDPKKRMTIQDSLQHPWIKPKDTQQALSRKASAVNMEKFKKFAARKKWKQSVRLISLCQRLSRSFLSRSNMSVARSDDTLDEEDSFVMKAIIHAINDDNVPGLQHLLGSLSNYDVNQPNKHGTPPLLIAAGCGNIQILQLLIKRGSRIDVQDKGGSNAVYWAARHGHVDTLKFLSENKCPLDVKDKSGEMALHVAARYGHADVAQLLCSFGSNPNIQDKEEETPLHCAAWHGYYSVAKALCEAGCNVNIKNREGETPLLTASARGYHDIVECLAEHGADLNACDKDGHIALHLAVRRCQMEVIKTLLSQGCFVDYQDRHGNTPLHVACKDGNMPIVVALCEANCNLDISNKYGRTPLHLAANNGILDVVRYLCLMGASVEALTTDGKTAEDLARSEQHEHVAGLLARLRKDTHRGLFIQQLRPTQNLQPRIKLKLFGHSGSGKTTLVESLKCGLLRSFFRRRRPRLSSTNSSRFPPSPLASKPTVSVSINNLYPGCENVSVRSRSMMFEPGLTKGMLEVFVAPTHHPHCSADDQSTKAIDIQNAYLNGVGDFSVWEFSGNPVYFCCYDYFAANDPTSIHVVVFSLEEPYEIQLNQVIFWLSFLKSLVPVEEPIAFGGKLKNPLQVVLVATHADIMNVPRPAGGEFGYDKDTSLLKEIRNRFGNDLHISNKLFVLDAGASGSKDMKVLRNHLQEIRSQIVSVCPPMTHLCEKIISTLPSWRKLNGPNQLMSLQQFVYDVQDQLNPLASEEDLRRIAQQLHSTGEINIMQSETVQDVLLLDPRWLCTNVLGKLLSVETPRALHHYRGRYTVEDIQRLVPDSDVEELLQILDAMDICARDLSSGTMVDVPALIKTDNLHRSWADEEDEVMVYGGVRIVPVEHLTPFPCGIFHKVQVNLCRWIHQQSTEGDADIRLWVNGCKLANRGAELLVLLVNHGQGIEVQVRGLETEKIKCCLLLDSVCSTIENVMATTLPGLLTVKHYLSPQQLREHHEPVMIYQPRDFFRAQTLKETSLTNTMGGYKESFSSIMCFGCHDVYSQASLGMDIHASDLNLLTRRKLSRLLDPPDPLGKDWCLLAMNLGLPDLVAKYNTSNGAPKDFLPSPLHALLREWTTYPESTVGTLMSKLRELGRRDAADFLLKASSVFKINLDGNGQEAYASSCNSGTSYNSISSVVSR
T1 sequence (O43293 whole entry, the tested form may be a part): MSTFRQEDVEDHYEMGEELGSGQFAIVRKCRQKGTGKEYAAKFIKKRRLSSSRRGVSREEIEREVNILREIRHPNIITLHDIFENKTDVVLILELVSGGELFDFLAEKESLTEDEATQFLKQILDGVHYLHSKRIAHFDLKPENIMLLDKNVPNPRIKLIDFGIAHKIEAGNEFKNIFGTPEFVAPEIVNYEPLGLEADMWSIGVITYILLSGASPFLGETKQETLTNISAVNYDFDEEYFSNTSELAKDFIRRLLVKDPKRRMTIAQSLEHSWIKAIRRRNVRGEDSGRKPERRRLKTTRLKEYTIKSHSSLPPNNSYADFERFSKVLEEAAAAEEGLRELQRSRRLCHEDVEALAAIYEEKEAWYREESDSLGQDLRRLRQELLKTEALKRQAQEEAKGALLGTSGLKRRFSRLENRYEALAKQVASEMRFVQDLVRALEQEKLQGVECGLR
T7 sequence (Q96RR4 whole entry, the tested form may be a part): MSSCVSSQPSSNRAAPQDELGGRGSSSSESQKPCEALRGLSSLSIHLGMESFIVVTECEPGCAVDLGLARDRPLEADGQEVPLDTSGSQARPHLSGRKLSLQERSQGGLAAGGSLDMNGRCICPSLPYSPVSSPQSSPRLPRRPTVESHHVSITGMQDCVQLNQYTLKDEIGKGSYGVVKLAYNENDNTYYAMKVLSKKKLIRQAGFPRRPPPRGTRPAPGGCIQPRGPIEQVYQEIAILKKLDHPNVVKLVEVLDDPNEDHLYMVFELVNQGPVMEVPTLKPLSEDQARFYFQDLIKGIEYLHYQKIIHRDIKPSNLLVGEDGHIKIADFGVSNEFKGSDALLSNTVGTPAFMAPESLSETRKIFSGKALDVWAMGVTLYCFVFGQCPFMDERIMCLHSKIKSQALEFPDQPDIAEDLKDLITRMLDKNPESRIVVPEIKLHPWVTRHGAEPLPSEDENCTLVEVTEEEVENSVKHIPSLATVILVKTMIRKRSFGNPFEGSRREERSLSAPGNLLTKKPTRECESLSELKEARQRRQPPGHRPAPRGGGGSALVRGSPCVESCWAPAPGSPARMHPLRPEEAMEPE

Regarding `Cc1ccc(C(=O)Nc2ccc(CN3CCN(C)CC3)c(C(F)(F)F)c2)cc1C#Cc1c[nH]c2ncnc(N3CCOCC3)c12` [Compound 1], the dTm is listed as 0.53 K in assay [1]; -0.17 K in assay [2]; 8.76 K in assay [3]; 0.30 K in assay [4]; 1.36 K in assay [5]; 3.06 K in assay [6]. Besides, the dTm turned out to be 10.65 K in assay [7] and 0.86 K in assay [8].
Regarding `O=C(Nc1ccc(F)cc1)C1(C(=O)Nc2cccc(-c3c[nH]c4ncnc(N5CCOCC5)c34)c2)CC1` [Compound 2], the dTm in assay [1] is on record as 7.00 K; in assay [2] it was 2.27 K; in assay [3], 9.06 K; in assay [4], -0.33 K; in assay [5] it was 0.92 K; in assay [6], 3.27 K. The dTm was 7.29 K in assay [7] and -1.13 K in assay [8].
In the case of `O=C(Nc1cccc(-c2c[nH]c3ncnc(N4CCOCC4)c23)c1)c1cccn(-c2ccc(F)cc2)c1=O` [Compound 4], the dTm is 5.01 K in assay [1]; 0.20 K in assay [2]; 9.53 K in assay [3]; -0.50 K in assay [4]; 0.82 K in assay [5]; 1.95 K in assay [6]. Also, the dTm in assay [7] is reported as 8.67 K; in assay [8], -0.72 K.
As for `Cc1cc(NC(=O)C2(C(=O)Nc3ccc(F)cc3)CC2)cc(-c2c[nH]c3ncnc(N4CCOCC4)c23)c1` [Compound 6], the dTm in assay [1] is reported as 3.25 K; in assay [2] it was 0.93 K; in assay [3], 4.67 K; in assay [4], -0.31 K; in assay [5], 0.52 K; in assay [6] it was 0.52 K. The figures for the dTm in assay [7] and in assay [8] were 4.32 K and 1.18 K, respectively.
With `O=C(Nc1cccc(-c2c[nH]c3ncnc(N4CCOCC4)c23)c1)C1(C(=O)Nc2cccc3c2CCC3)CC1` [Compound 11], the dTm is recorded as 3.33 K in assay [1]; 0.68 K in assay [2]; 7.29 K in assay [3]; -0.99 K in assay [4]; 0.44 K in assay [5]; -0.63 K in assay [6]. Moreover, the dTm in assay [7] was found to be 5.02 K; in assay [8], 1.55 K.
With `Cc1ccc(-n2nc(C(C)(C)C)cc2NC(=O)Nc2cccc(-c3c[nH]c4ncnc(N5CCOCC5)c34)c2)cc1` [Compound 29], the dTm in assay [1] is on record as 0.00 K; in assay [2], 2.17 K; in assay [3] it was 17.42 K; in assay [4] it was 2.62 K; in assay [5] it was 0.97 K; in assay [6], 5.32 K. Besides, the dTm in assay [8] worked out at 0.25 K.
Regarding `Cc1ccc(-n2nc(C(C)(C)C)cc2NC(=O)Nc2cccc(-c3c[nH]c4nc(Cl)nc(N5CCOCC5)c34)c2)cc1` [Compound 30], the dTm in assay [1] is 6.34 K; in assay [2] it was -1.15 K; in assay [3], 11.59 K; in assay [4], -3.64 K; in assay [5], 0.19 K; in assay [6], 0.53 K. The dTm in assay [8] is reported as -1.50 K.
With `CC(=O)N1CCN(c2nc(Cl)nc3[nH]cc(-c4cccc(NC(=O)Nc5cc(C(C)(C)C)nn5-c5ccc(C)cc5)c4)c23)CC1` [Compound 31], the dTm was 6.63 K in assay [1]; -0.72 K in assay [2]; 10.57 K in assay [3]; -1.54 K in assay [4]; 0.38 K in assay [5]; 0.59 K in assay [6]. In assay [8], this compound registered a dTm of -1.67 K.
As for `COc1cc(C(=O)N2CCOCC2)c(F)cc1Nc1nc(N(C)C)c2c(Cl)c[nH]c2n1` [Compound 36], the dTm in assay [1] was 6.29 K; in assay [2], 7.95 K; in assay [3], 8.96 K; in assay [4], 3.45 K; in assay [5] it was 0.63 K; in assay [6], 2.52 K. In addition, in assay [8], the dTm is -1.95 K.
With `COc1cc(S(C)(=O)=O)ccc1Nc1nc(N(C)C)c2c(Cl)c[nH]c2n1` [Compound 37], the dTm in assay [1] is given as 3.62 K; in assay [2], 3.65 K; in assay [3], 5.62 K; in assay [4], 0.93 K; in assay [5], -0.0179 K; in assay [6], 0.85 K. The compound further returned a dTm in assay [8] of -1.44 K.
In the case of `Cc1ccc(C(=O)Nc2ccc(CN3CCN(C)CC3)c(C(F)(F)F)c2)cc1C#Cc1cnc2[nH]ncc2c1` [GZD-824, reference compound], the dTm was 0.50 K in assay [1]; -0.11 K in assay [2]; 7.80 K in assay [3]; 0.59 K in assay [4]; 5.77 K in assay [6]; 8.63 K in assay [7]. Moreover, in assay [8], the dTm is given as -0.0844 K.
As for `CNC(=O)c1cc(Oc2ccc(NC(=O)Nc3cc(C(C)(C)C)nn3-c3ccc4ncccc4c3)c(F)c2)ccn1` [Rebastinib, reference compound], the dTm is 5.73 K in assay [1]; 15.99 K in assay [3]; -1.01 K in assay [4]; -0.70 K in assay [5]; 0.20 K in assay [6]; 8.93 K in assay [7]. In assay [8], the dTm was 0.57 K.
Consider `CN[C@@H]1C[C@H]2O[C@@](C)([C@@H]1OC)n1c3ccccc3c3c4c(c5c6ccccc6n2c5c31)C(=O)NC4` [Staurosporine], for which the dTm in assay [4] is reported as 9.84 K; in assay [5] it was 3.02 K; in assay [6] it was 12.42 K; in assay [7] it was 24.44 K.
